According to patent US8481537B2, “Caspase inhibitors based of pyridazinone scaffold” (LG Life Sciences Ltd., priority 2006, dated 2013):

Tests used:
Caspase-8 = target: T1, Caspase-8 (Homo sapiens, UniProt Q14790); assay: Caspase inhibitory effect, fluorescent substrate AcDEVD-AFC; format: biochemical; settings: pH 7.5; 2.1 nM caspase-8, 50 μM AcDEVD-AFC, 25° C., pH 7.50; read-out: Caspase-8 Kobs/[I] (converted)
T1 construct: p10 and p20 subunits (Thornberry, N. A. et al, Nature, 1992, 356, 768) were expressed in E. coli; made in house; host or cells: E. coli
T1 sequence (Q14790 217-374 limits assumed, species assumed): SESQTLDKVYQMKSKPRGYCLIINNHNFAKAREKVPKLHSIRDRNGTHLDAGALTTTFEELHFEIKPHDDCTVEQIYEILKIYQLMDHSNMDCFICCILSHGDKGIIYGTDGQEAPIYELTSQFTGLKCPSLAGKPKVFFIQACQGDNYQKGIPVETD
T1 sequence (Q14790 385-479 limits assumed, species assumed): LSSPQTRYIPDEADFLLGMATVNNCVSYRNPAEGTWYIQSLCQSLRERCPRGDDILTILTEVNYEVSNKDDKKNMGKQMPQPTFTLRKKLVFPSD
Method: Caspase-1 and caspase-8 known as cysteine proteases in the form of α2β2 were expressed, purified, and activated by modifying a method known in Thornberry, N. A. et al, Nature, 1992, 356, 768. Thornberry, N. A. Methods in Enzymology, 1994, 244, 615. Walker, N. P. C. et al. Cell, 1994, 78, 343, and caspase-9 was also purified by a similar method, and the inhibitory activity against them was tested. Briefly describing, p10 and p20 subunits (Thornberry, N. A. et al, Nature, 1992, 356, 768) were expressed in E. coli and purified by nickel column and anionic exchange chromatography to give caspase-1, caspase-8 and caspase-9. The fluorescent substrates AcYVAD-AFC for thus obtained caspase-1, AcDEVD-AFC for caspase-8, and AcLEHD-AFC for caspase-9, were used for determining specific activity of the synthesized inhibitors. The enzyme reaction was carried out at 25° C. with various concentrations of the inhibitors in a buffer solution containing 50 mM HEPES(pH 7.50), 10% (w/v) sucrose, 0.1% (w/v) CHAPS, 100 mM NaCl, 1 mM EDTA, and 10 mM DTT in the presence of 50 μM AcYVAD-AFC for 10 nM caspase-1, 50 μM AcDEVD-AFC for 2.1 nM caspase-8, and 150 μM AcLEHD-AFC for 200 nM caspase-9. The inhibitory constants Ki and Kobs of the inhibitors were determined by measuring the reaction velocity with the time lapse using a fluorescent spectrometer and by obtaining the initial rate constant. Ki was calculated from the Lineweaver Burk Plot, and Kobs from the following Equation 1. Kobs=−ln(1−At/Aoo)/t [Equation 1]
At means cleavage rate (%) at time t, and
Aoo means the maximum cleavage rate (%).
Spectra MAX GeminiXS Fluorescent Spectrometer of Molecular Device Co. was used at the excitation wavelength of 405 nm and the emission wavelength of 505 nm.

[1] = system: Jurkat cell (ATCC TIB-152); assay: Jurkat cell apoptosis induced by Fas antibody, WST-1 method; format: cell-based; settings: Homo sapiens, amount of alive cells by WST-1
Method: The […] inhibitory activity of the inhibitors was determined by subjecting Jurkat cell (ATCC TIB-152) to apoptosis using Fas antibody (Upstate Biotech 05-201) and by detecting the color change according to the WST-1 method known in Francoeur A. M. and Assalian A. (1996) Biochemica 3, 19-25 to observe the amount of alive Jurkat cells when the cells were treated by the inhibitor. Spectra MAX 340 Spectrometer of Molecular Device Co. was used at the absorbance wavelength of 440 nm.

CC[C@@H](C(=O)N[C@@H](CC(=O)O)C(=O)COC(=O)c1c(Cl)cccc1Cl)c1ccnn(Cc2ccccc2C(C)(C)C)c1=O (single isomer, unassigned) [Example 23-1]
kinact/KI (Caspase-8): 20000 M⁻¹ s⁻¹
IC50 [1]: 0.14 µM

CC[C@H](C(=O)N[C@@H](CC(=O)O)C(=O)COC(=O)c1c(Cl)cccc1Cl)c1ccnn(Cc2ccccc2C(C)(C)C)c1=O (single isomer, unassigned) [Example 23-2]
kinact/KI (Caspase-8): 933 M⁻¹ s⁻¹
IC50 [1]: 2.48 µM

CCC(C(=O)NC(CC(=O)O)C(=O)CF)c1c(C)cnn(-c2ccccc2)c1=O (centres unmarked) [Example 1, 5-Fluoro-3-[2-(5-methyl-3-oxo-2-phenyl-2,3-dihydro-pyridazin-4-yl)-butyrylamino]-4-oxo-pentanoic acid]
kinact/KI (Caspase-8): 967 M⁻¹ s⁻¹
IC50 [1]: 8 µM

CCC(C(=O)NC(CC(=O)O)C(=O)CF)c1c(C)cnn(Cc2ccccc2)c1=O (centres unmarked) [Example 2, 3-[2-(2-Benzyl-5-methyl-3-oxo-2,3-dihydro-pyridazin-4-yl)-butyrylamino]-5-f luoro-4-oxo-pentanoic acid]
kinact/KI (Caspase-8): 7330 M⁻¹ s⁻¹
IC50 [1]: 1.48 µM

CCC(C(=O)NC(CC(=O)O)C(=O)CF)c1ccnn(Cc2ccccc2)c1=O (centres unmarked) [Example 3, 3-[2-(2-Benzyl-3-oxo-2,3-dihydro-pyridazin-4-yl)-butyrylamino]-5-fluoro-4-o xo-pentanoic acid]
kinact/KI (Caspase-8): 21700 M⁻¹ s⁻¹
IC50 [1]: 0.46 µM

CCC(C(=O)NC(CC(=O)O)C(=O)CF)c1c(Cl)cnn(Cc2ccccc2)c1=O (centres unmarked) [Example 4, 3-[2-(2-Benzyl-5-chloro-3-oxo-2,3-dihydro-pyridazin-4-yl)-butyrylamino]-5-fl uoro-4-oxo-pentanoic acid]
kinact/KI (Caspase-8): 6830 M⁻¹ s⁻¹
IC50 [1]: 0.39 µM

CCC(C(=O)NC(CC(=O)O)C(=O)CF)c1c(OC)cnn(Cc2ccccc2)c1=O (centres unmarked) [Example 5, 3-[2-(2-Benzyl-5-methoxy-3-oxo-2,3-dihydro-pyridazin-4-yl)-butyrylamino]-5-fluoro-4-oxo-pentanoic acid]
kinact/KI (Caspase-8): 3830 M⁻¹ s⁻¹
IC50 [1]: 2.07 µM

CCC(C(=O)NC(CC(=O)O)C(=O)CF)c1ccnn(Cc2ccccc2C(C)(C)C)c1=O (centres unmarked) [Example 6, 3-2-[2-(2-tert-Butyl-benzyl)-3-oxo-2,3-dihydro-pyridazin-4-yl]-butyrylamino-5-fluoro-4-oxo-pentanoic acid]
kinact/KI (Caspase-8): 63300 M⁻¹ s⁻¹
IC50 [1]: 0.042 µM

CCC(C(=O)NC(CC(=O)O)C(=O)CF)c1ccnn(Cc2cccc(C(C)(C)C)c2)c1=O (centres unmarked) [Example 7, 3-2-[2-(3-tert-Butyl-benzyl)-3-oxo-2,3-dihydro-pyridazin-4-yl]-butyrylamino-5-fluoro-4-oxo-pentanoic acid]
kinact/KI (Caspase-8): 23300 M⁻¹ s⁻¹
IC50 [1]: 0.035 µM

CCC(C(=O)NC(CC(=O)O)C(=O)CF)c1ccnn(Cc2ccccc2C)c1=O (centres unmarked) [Example 8, 5-Fluoro-3-2-[2-(2-methyl-benzyl)-3-oxo-2,3-dihydro-pyridazin-4-yl]-butyryl amino-4-oxo-pentanoic acid]
kinact/KI (Caspase-8): 20000 M⁻¹ s⁻¹
IC50 [1]: 0.82 µM

CCC(C(=O)NC(CC(=O)O)C(=O)CF)c1ccnn(Cc2cccc(C)c2)c1=O (centres unmarked) [Example 9, 5-Fluoro-3-2-[2-(3-methyl-benzyl)-3-oxo-2,3-dihydro-pyridazin-4-yl]-butyryl amino-4-oxo-pentanoic acid]
kinact/KI (Caspase-8): 50000 M⁻¹ s⁻¹
IC50 [1]: 0.88 µM

CCC(C(=O)NC(CC(=O)O)C(=O)CF)c1ccnn(Cc2cccc(OC)c2)c1=O (centres unmarked) [Example 10, 5-Fluoro-3-2-[2-(3-methoxy-benzyl)-3-oxo-2,3-dihydro-pyridazin-4-yl]-butyr ylamino-4-oxo-pentanoic acid]
kinact/KI (Caspase-8): 20000 M⁻¹ s⁻¹
IC50 [1]: 0.55 µM

CCC(C(=O)NC(CC(=O)O)C(=O)CF)c1ccnn(Cc2cccc3ccccc23)c1=O (centres unmarked) [Example 11, 5-Fluoro-3-[2-(2-naphthalen-1-ylmethyl-3-oxo-2,3-dihydro-pyridazin-4-yl)-butyrylamino]-4-oxo-pentanoic acid]
kinact/KI (Caspase-8): 56700 M⁻¹ s⁻¹
IC50 [1]: 0.17 µM

CCC(C(=O)NC(CC(=O)O)C(=O)CF)c1ccnn(Cc2ccc3ccccc3c2)c1=O (centres unmarked) [Example 12, 5-Fluoro-3-[2-(2-naphthalen-2-ylmethyl-3-oxo-2,3-dihydro-pyridazin-4-yl)-butyrylamino]-4-oxo-pentanoic acid]
kinact/KI (Caspase-8): 15500 M⁻¹ s⁻¹
IC50 [1]: 0.29 µM

CCC(C(=O)NC(CC(=O)O)C(=O)CF)c1ccnn(Cc2coc(C)n2)c1=O (centres unmarked) [Example 13, 5-Fluoro-3-2-[2-(2-methyl-oxazol-4-ylmethyl)-3-oxo-2,3-dihydro-pyridazin-4-yl]-butyrylamino-4-oxo-pentanoic acid]
kinact/KI (Caspase-8): 11500 M⁻¹ s⁻¹
IC50 [1]: 3.76 µM

CCC(C(=O)NC(CC(=O)O)C(=O)CF)c1ccnn(Cc2csc(C)n2)c1=O (centres unmarked) [Example 14, 5-Fluoro-3-2-[2-(2-methyl-thiazol-4-ylmethyl)-3-oxo-2,3-dihydro-pyridazin-4-yl]-butyrylamino-4-oxo-pentanoic acid]
kinact/KI (Caspase-8): 14000 M⁻¹ s⁻¹
IC50 [1]: 0.73 µM

CCC(C(=O)NC(CC(=O)O)C(=O)CF)c1ccnn(Cc2c(C)noc2C)c1=O (centres unmarked) [Example 15, 3-2-[2-(3,5-Dimethyl-isoxazol-4-ylmethyl)-3-oxo-2,3-dihydro-pyridazin-4-yl]-butyrylamino-5-fluoro-4-oxo-pentanoic acid]
kinact/KI (Caspase-8): 12000 M⁻¹ s⁻¹
IC50 [1]: 0.8 µM

CCC(C(=O)NC(CC(=O)O)C(=O)CF)c1ccnn(CC2CCCCC2)c1=O (centres unmarked) [Example 16, 3-[2-(2-Cyclohexylmethyl-3-oxo-2,3-dihydro-pyridazin-4-yl)-butyrylamino]-5-fluoro-4-oxo-pentanoic acid]
kinact/KI (Caspase-8): 12300 M⁻¹ s⁻¹
IC50 [1]: 0.09 µM

CCC(C(=O)NC(CC(=O)O)C(=O)CF)c1ccnn(Cc2nccc3ccccc23)c1=O (centres unmarked) [Example 17, 5-Fluoro-3-[2-(2-isoquinolin-1-ylmethyl-3-oxo-2,3-dihydro-pyridazin-4-yl)-butyrylamino]-4-oxo-pentanoic acid]
kinact/KI (Caspase-8): 25000 M⁻¹ s⁻¹
IC50 [1]: 0.13 µM

CCC(C(=O)NC(CC(=O)O)C(=O)CF)c1ccnn(Cc2ccccc2Cl)c1=O (centres unmarked) [Example 18, 3-{2-[2-(2-Chloro-benzyl)-3-oxo-2,3-dihydro-pyridazin-4-yl]-butyrylamino}-5-fluoro-4-oxo-pentanoic acid]
kinact/KI (Caspase-8): 73300 M⁻¹ s⁻¹
IC50 [1]: 0.042 µM

CCC(C(=O)NC(CC(=O)O)C(=O)CF)c1ccnn(Cc2cccc(Cl)c2)c1=O (centres unmarked) [Example 19, 3-{2-[2-(3-Chloro-benzyl)-3-oxo-2,3-dihydro-pyridazin-4-yl]-butyrylamino}-5-fluoro-4-oxo-pentanoic acid]
kinact/KI (Caspase-8): 28300 M⁻¹ s⁻¹
IC50 [1]: 0.035 µM

CCC(C(=O)NC(CC(=O)O)C(=O)CF)c1ccnn(Cc2cccc(Br)c2)c1=O (centres unmarked) [Example 20, 3-{2-[2-(3-Bromo-benzyl)-3-oxo-2,3-dihydro-pyridazin-4-yl]-butyrylamino}-5-fluoro-4-oxo-pentanoic acid]
kinact/KI (Caspase-8): 18300 M⁻¹ s⁻¹
IC50 [1]: 0.043 µM

CCC(C(=O)NC(CC(=O)O)C(=O)CF)c1ccnn(Cc2ccccc2C(F)(F)F)c1=O (centres unmarked) [Example 21, 5-Fluoro-4-oxo-3-{2-[3-oxo-2-(2-trifluoromethyl-benzyl)-2,3-dihydro-pyridazin-4-yl]-butyrylamino}-pentanoic acid]
kinact/KI (Caspase-8): 66700 M⁻¹ s⁻¹
IC50 [1]: 0.043 µM

CCC(C(=O)NC(CC(=O)O)C(=O)CF)c1ccnn(Cc2cccc(C(F)(F)F)c2)c1=O (centres unmarked) [Example 22, 5-Fluoro-4-oxo-3-{2-[3-oxo-2-(3-trifluoromethyl-benzyl)-2,3-dihydro-pyridazin-4-yl]-butyrylamino}-pentanoic acid]
kinact/KI (Caspase-8): 14300 M⁻¹ s⁻¹
IC50 [1]: 0.216 µM

CC[C@H](C(=O)N[C@@H](CC(=O)O)C(=O)COc1c(F)ccc(F)c1F)c1ccnn(Cc2ccccc2C(C)(C)C)c1=O [Example 26-2, (S)-3-{(S)-2-[2-(2-tert-Butyl-benzyl)-3-oxo-2,3-dihydro-pyridazin-4-yl]-butyrylamino}-4-oxo-5-(2,3,6-trifluoro-phenoxy)-pentanoic acid]
kinact/KI (Caspase-8): 7830 M⁻¹ s⁻¹

CC[C@H](C(=O)N[C@@H](CC(=O)O)C(=O)COc1c(F)cccc1F)c1ccnn(Cc2ccccc2C(C)(C)C)c1=O [Example 27-2, (S)-3-{(S)-2-[2-(2-tert-Butyl-benzyl)-3-oxo-2,3-dihydro-pyridazin-4-yl]-butyrylamino}-5-(2,6-difluoro-phenoxy)-4-oxo-pentanoic acid]
kinact/KI (Caspase-8): 3170 M⁻¹ s⁻¹
